Consider 11 compounds from ChEMBL document CHEMBL1201862, “PubChem BioAssay data set” (2004).

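96-well plates; 48 h exposure; 5 concentrations. Endpoints by linear interpolation between flanking doses. Not reached: highest tested concentration assigned. GI50: concentration for 50% inhibition of growth.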 The source made the active and inactive calls. No stated cut-off is given here; in the data, active = GI50 up to about 1.1 µM and inactive = higher.

Some test systems named below: SF-268; RXF 393; T47D; SW-620; LOX IMVI; OVCAR-5; SN12C; OVCAR-3; ACHN; SF-295; NCI-H226; HOP-62; MOLT-4; A498; A549; OVCAR-4; 786-0; CAKI-1; RPMI-8226; COLO 205.
Experiment in all cases: NCI-60 cell line screen, 48 h

Take `COc1cc(NCCC(=O)O)c2ncccc2c1`: the GI50 in the experiment on SF-268, in the experiment with RXF 393, in the experiment with T47D, with SW-620, with LOX IMVI and in the experiment on OVCAR-5 was > 100 µM (inactive) throughout. For the same compound, the GI50 with SN12C, in the experiment with OVCAR-3, in the experiment on ACHN, in the experiment with SF-295, in the experiment with NCI-H226 and with HOP-62 was > 100 µM (inactive) in each case. The GI50 with MOLT-4, with A498, in the experiment with A549, with OVCAR-4 and in the experiment on 786-0 was > 100 µM (inactive) each time.
With `O=C(O)CCCc1nc2c(n1-c1ccccc1)C(=O)c1ccccc1C2=O`, the GI50 in the experiment with SF-268 was 38.1 µM (inactive); in the experiment with T47D it was > 100 µM (inactive); with SW-620 it was > 100 µM (inactive); in the experiment with LOX IMVI it was > 100 µM (inactive); with OVCAR-5, > 100 µM (inactive); in the experiment on SN12C, 52.5 µM (inactive). Moreover, the GI50 with OVCAR-3 was 33.6 µM (inactive); in the experiment on ACHN it was 68.1 µM (inactive); with SF-295, 60 µM (inactive); in the experiment on MOLT-4, 68.4 µM (inactive); in the experiment on CAKI-1 it was > 100 µM (inactive); with RPMI-8226, 40.7 µM (inactive). The GI50 in the experiment with A498 was > 100 µM (inactive); in the experiment on A549, > 100 µM (inactive); in the experiment on OVCAR-4, 23.9 µM (inactive); with COLO 205 it was 52.5 µM (inactive); in the experiment on 786-0 it was > 100 µM (inactive).
For the compound `COC(=O)[C@@H](NS(=O)(=O)CC12CCC(CC1)C2(C)C)C(C)(C)C`, the GI50 in the experiment with SF-268 was > 100 µM (inactive); in the experiment with RXF 393 it was 44.4 µM (inactive); with T47D, > 100 µM (inactive); in the experiment on SW-620, > 100 µM (inactive); in the experiment on LOX IMVI, > 100 µM (inactive); in the experiment with OVCAR-5, > 100 µM (inactive). In addition, the GI50 with SN12C is > 100 µM (inactive); in the experiment on OVCAR-3, > 100 µM (inactive); in the experiment with ACHN it was > 100 µM (inactive); in the experiment on SF-295, > 100 µM (inactive); with NCI-H226, > 100 µM (inactive); with MOLT-4 it was 4.85 µM (inactive). Moreover, the GI50 in the experiment on CAKI-1, in the experiment on A498, in the experiment with A549, in the experiment with OVCAR-4, in the experiment with COLO 205 and in the experiment with 786-0 was > 100 µM (inactive) each time.
As to `Cn1c(=O)c2c(nc3n2CC(=O)N3CCCCl)n(C)c1=O`, the GI50 in the experiment with SF-268, with T47D, with SW-620, with LOX IMVI, in the experiment on OVCAR-5 and with SN12C was > 100 µM (inactive) throughout. The GI50 was > 100 µM (inactive) in the experiment on OVCAR-3; > 100 µM (inactive) in the experiment with ACHN; > 100 µM (inactive) in the experiment with SF-295; > 100 µM (inactive) in the experiment with NCI-H226; > 100 µM (inactive) in the experiment with HOP-62; 83.8 µM (inactive) in the experiment with MOLT-4. Also, the GI50 in the experiment on CAKI-1, in the experiment with RPMI-8226, in the experiment on A498, in the experiment with A549, in the experiment on OVCAR-4 and with COLO 205 was > 100 µM (inactive) in each case. Besides, the GI50 with 786-0 is > 100 µM (inactive).
`CCN(CC)Cc1ccc(C(=S)Nc2ccc(C)cc2)s1`: the GI50 in the experiment with SF-268 was 1.25 µM (inactive); with T47D, 15.9 µM (inactive); in the experiment on SW-620 it was 20.2 µM (inactive); with LOX IMVI, 16 µM (inactive); with OVCAR-5, 14.8 µM (inactive); in the experiment with OVCAR-3 it was 21.2 µM (inactive). The GI50 was 16 µM (inactive) in the experiment on ACHN; 13.8 µM (inactive) with SF-295; 17.5 µM (inactive) in the experiment on HOP-62; 13 µM (inactive) in the experiment with MOLT-4; 15 µM (inactive) in the experiment on CAKI-1; 14.7 µM (inactive) in the experiment with RPMI-8226. The GI50 is 13.3 µM (inactive) in the experiment with A498; 16.6 µM (inactive) in the experiment with A549; 21.6 µM (inactive) in the experiment on OVCAR-4; 16 µM (inactive) with COLO 205; 15.5 µM (inactive) with 786-0.
In the case of `Cc1cc(-c2nc3ccccc3s2)ccc1NC(=O)[C@@H](N)CCCCN`, the GI50 with SF-268 was 6.07 µM (inactive); in the experiment with RXF 393, 3.89 µM (inactive); with T47D it was < 0.0247 µM (active); in the experiment with SW-620, 12.7 µM (inactive); in the experiment on LOX IMVI, 2.03 µM (inactive); in the experiment with OVCAR-5, 12.5 µM (inactive). Besides, the GI50 in the experiment on SN12C was 16.8 µM (inactive); in the experiment on OVCAR-3, 12.9 µM (inactive); in the experiment on ACHN it was 14.7 µM (inactive); in the experiment on SF-295, 5.07 µM (inactive); in the experiment with NCI-H226, 2.24 µM (inactive); with HOP-62 it was 11.8 µM (inactive). The GI50 with MOLT-4 is 6.58 µM (inactive); with CAKI-1, 7.5 µM (inactive); in the experiment with A498, 3.83 µM (inactive); in the experiment with A549, 6.14 µM (inactive); in the experiment with OVCAR-4, 5.87 µM (inactive); with COLO 205, 12.4 µM (inactive). In the experiment with 786-0, the GI50 is 5.96 µM (inactive).
As for `Clc1ccc2c(c1)CC1C[N+]3=C(CCCC3)C1=C2` (stereo unspecified), the GI50 in the experiment with SF-268 was 90.4 µM (inactive); with RXF 393 it was > 100 µM (inactive); in the experiment on T47D it was 51.3 µM (inactive); in the experiment on SW-620, 47.9 µM (inactive); with LOX IMVI, > 100 µM (inactive); with OVCAR-5, > 100 µM (inactive). Also, the GI50 with SN12C was > 100 µM (inactive); with OVCAR-3, 34.4 µM (inactive); in the experiment on ACHN, > 100 µM (inactive); with SF-295, 28 µM (inactive); in the experiment with NCI-H226, 76.6 µM (inactive); with HOP-62 it was 89.9 µM (inactive). Moreover, the GI50 was > 100 µM (inactive) with MOLT-4; > 100 µM (inactive) in the experiment on CAKI-1; 72.1 µM (inactive) in the experiment with A498; 39.6 µM (inactive) in the experiment on A549; 37.6 µM (inactive) in the experiment with OVCAR-4; 58.1 µM (inactive) in the experiment on COLO 205. For the same compound, the GI50 with 786-0 is > 100 µM (inactive).
For the compound `CC(C)OP(=O)(CN(C)/C(F)=N\C(F)(F)F)OC(C)C`, the GI50 in the experiment with SF-268, with RXF 393, in the experiment with T47D, in the experiment on SW-620, in the experiment with LOX IMVI and with OVCAR-5 was > 100 µM (inactive) in each case. In addition, the GI50 in the experiment on SN12C, with OVCAR-3, with ACHN, in the experiment on SF-295, with NCI-H226 and with HOP-62 was > 100 µM (inactive) each time. The GI50 in the experiment on MOLT-4, in the experiment on CAKI-1, with A498, with A549, in the experiment with COLO 205 and with 786-0 was > 100 µM (inactive) throughout.
Take `COc1ccc2c(c1)CCCN1Cc3ccccc3CC21` (stereo unspecified): the GI50 with SF-268 is > 100 µM (inactive); in the experiment with RXF 393 it was 48.3 µM (inactive); with T47D, 33.7 µM (inactive); in the experiment with SW-620, 65.6 µM (inactive); in the experiment on LOX IMVI it was 43.5 µM (inactive); in the experiment on OVCAR-5, 78.2 µM (inactive). Also, the GI50 with SN12C is 64.1 µM (inactive); with OVCAR-3, 52.7 µM (inactive); in the experiment on ACHN, > 100 µM (inactive); in the experiment on SF-295, 65.9 µM (inactive); with NCI-H226 it was 31.5 µM (inactive); with HOP-62 it was 40.8 µM (inactive). Moreover, the GI50 was 54.2 µM (inactive) with MOLT-4; > 100 µM (inactive) with CAKI-1; 27 µM (inactive) in the experiment with A498; > 100 µM (inactive) with A549; > 100 µM (inactive) with OVCAR-4; 40.7 µM (inactive) in the experiment on COLO 205. Further, the GI50 in the experiment on 786-0 was 99.1 µM (inactive).
`CC1=NC(=Cc2cccc(Cl)c2)C(=O)N1n1c(-c2ccccc2)nc2ccccc2c1=O`: the GI50 in the experiment on SF-268 is 65.3 µM (inactive); in the experiment with T47D, 19.8 µM (inactive); in the experiment with SW-620 it was 55 µM (inactive); with LOX IMVI it was 25.9 µM (inactive); in the experiment with SN12C it was 40.4 µM (inactive); in the experiment with ACHN, 24.5 µM (inactive). The GI50 is 35.7 µM (inactive) in the experiment with SF-295; 90.4 µM (inactive) with NCI-H226; 24.5 µM (inactive) in the experiment with HOP-62; 27.9 µM (inactive) with MOLT-4; 22.8 µM (inactive) with CAKI-1; 30.2 µM (inactive) in the experiment on RPMI-8226. For the same compound, the GI50 in the experiment on A498 was 26.4 µM (inactive); with A549 it was 35.8 µM (inactive); in the experiment with COLO 205 it was 36.1 µM (inactive); in the experiment on 786-0 it was 48.6 µM (inactive).
For `C=C(C)C(=O)OC1C[C@H](COC(C)=O)C2CC=C(CO)C2C2OC(=O)C(=C)[C@H]12` (stereo partly specified), the GI50 in the experiment on SF-268 is 23.6 µM (inactive); with T47D it was 34.8 µM (inactive); in the experiment with SW-620, 16.2 µM (inactive); in the experiment on LOX IMVI, 26.7 µM (inactive); in the experiment with OVCAR-5 it was > 100 µM (inactive); in the experiment with OVCAR-3, 42.4 µM (inactive). The GI50 was 44.3 µM (inactive) with ACHN; > 100 µM (inactive) with SF-295; > 100 µM (inactive) with NCI-H226; > 100 µM (inactive) in the experiment with HOP-62; 13.8 µM (inactive) with MOLT-4; 41.6 µM (inactive) in the experiment on CAKI-1. Besides, the GI50 is 12.4 µM (inactive) in the experiment on RPMI-8226; > 100 µM (inactive) with A498; > 100 µM (inactive) in the experiment with A549; 16.4 µM (inactive) with COLO 205; 27.6 µM (inactive) with 786-0.
